Test results: patent US5478838A, “4-amino(alkyl)cyclohexane-1-carboxamide compound and use thereof” (Yoshitomi Pharmaceutical Industries, Ltd., priority 1991, dated 1995)

Legend:
[1] = Antihypertensive action in conscious, unrestrained SHR (i.v.), Pharmacological Experiment 1; format: in vivo, spontaneously hypertensive rats (SHR); conditions: 0.3 mg/kg i.v., change in blood pressure
From the text: Catheters for blood pressure measurement and for drug administration were previously inserted into carotid artery and jugular vein of spontaneously hypertensive rats (SHR) weighing 350-450 g. […] The blood pressure was automatically measured and analyzed with a pressure transducer.

thoracic aorta = assay: Relaxation of phenylephrine-contracted thoracic aorta ring strips (vasodilation), Pharmacological Experiment 2; conditions: Oryctolagus cuniculus; phenylephrine 10^-6 M; rabbit aorta ring strips; read-out: Vasodilation, IC50, concentration required to inhibit phenylephrine-induced contraction by half
Protocol: Male rabbits (weighing 1.9-3.0 kg) were anesthetized with sodium pentobarbital and dehematized to remove thoracic aorta. Ring strips (about 2 mm wide) were prepared and suspended in a 40 ml-Magnus bath filled with Krebs-Henseleit solution (NaCl 117 mM; KCl 4.7 mH; CaCl2 2.5 mH; MgSO4 1.2 mM; NaHCO3 24.8 mM; KH2 PO4 1.2 mM; glucose 11.0 mM). The resting tension of 2 g was applied. The Magnus bath was constantly aerated with a mixed gas (95% oxygen+5% carbon dioxide gas). The tension of the strips was measured by an isometric transducer (TB-611T, Nihon Kohden, Japan). The strips were contracted with phenylephrine (10^-6 M) and after the contraction became stable, the compounds were cumulatively added to the bath and relaxing response was observed. The vasodilating action of the compounds was expressed as IC50 (μM), the concentration required to inhibit phenylephurine-induced contraction (which was taken as 100%) by half.

left coronary artery = assay: Effect on coronary blood flow, perfused left coronary artery of anesthetized dogs, Pharmacological Experiment 3; format: in vivo, mongrel dog; conditions: intracoronary injection; for Increase in coronary blood flow, ED50: dose giving half of the effect of 3 μg nifedipine
Protocol: Groups of 2 or 3 adult mongrel dogs were anesthetized with an intravenous administration of 30 mg/kg body weight of sodium pentobarbital. According to the method of Yago et al [Folia Pharmacologica Japonica, vol. 57, p. 380 (1961)], the left coronary artery was perfused and its blood flow was measured. Test compound was injected into the coronary artery at a volume of 10-300 μg. The effects of the test compound on coronary blood flow were expressed as ED50 (μg), the dose required to increase the coronary blood flow by a half of the effects by the coronary artery injection of 3 μg of nifedipine [dimethyl 2,6-dimethyl-4-(2-nitrophenyl)-1,4-dihydropyridine-3,5-dicarboxylate].
The half life (T 1/2, minute) was also measured as the duration of effects.

trachea = assay: Effect on acetylcholine-induced contraction of isolated trachea strips (bronchodilation), Pharmacological Experiment 4; parameters: species or system guinea pig (Hartley); conditions: Cavia porcellus; acetylcholine 10^-6 M contraction; papaverine 10^-4 M response taken as 100%
Protocol: Male Hartley guinea pigs weighing 260-390 g were anesthetized with sodium pentobarbital (100 mg/kg, i.p.). The guinea pigs were then dehematized and trachea was isolated. Ventral cartilage of the trachea was incised and ligament was insected to give 3 mm wide strips. The strips were suspended in a 40 ml-Magnus bath filled with Krebs-Henseleit solution (NaCl 117 mM; KCl 4.7 mM; CaCl2 2.5 mM; MgSO4 1.2 mM; NaHCO3 24.8 mM; KH2 PO4 1.2 mM; glucose 11.0 mM). The resting tension of 1 g was applied. The Magnus bath was constantly aerated with a mixed gas (95% oxygen+5% carbon dioxide gas). The tension of the strips was measured with an isometric transducer (TB-611T, Nihon Kohden, Japan) and recorded on a recorder (Ti-102, Tokai Irika, Japan). The strips were contracted with acetylcholine (10^-6 M) and after the contraction became stable, the compounds were cumulatively added to the bath and relaxing response was observed. The relaxation by the compounds was expressed as IC50 (μM), the concentration required to inhibit the papaverine (10^-4 M)-induced response (which was taken as 100%) by half.

[2] = system: experimental asthma caused by histamine inhalation; assay: Effects on experimental asthma caused by histamine inhalation, Pharmacological Experiment 5; format: in vivo, guinea pig (Hartley); conditions: 0.2% histamine
Protocol: According to Suyama [Allergy, vol. 15, p. 549 (1966)], female Hartley guinea pigs weighing 490-630 g were placed in an aerosol inhalation device, and 0.2% histamine solution (histamine chloride, Nakarai Kagaku, Japan) was sprayed with an ultrasonic nebulizer (TUR-3200, Nihon Kohden, Japan). Protective action was examined using collapsing as an index. Inhalation of the test compound was performed by placing the guinea pigs in the aforementioned aerosol inhalation device and spraying the test compound dissolved in a physiological saline to a predetermined concentration for 5 minutes. Then, the guinea pigs were allowed to immediately inhale histamine and delay in collapsing by dyspnea was measured.

Row | SMILES | Antihypertensive action (SHR i.v.) [1] | IC50 (thoracic aorta) | Increase in coronary blood flow, T 1/2 (half life as duration of effects) (left coronary artery) | Increase in coronary blood flow, ED50 (left coronary artery) | IC50 (trachea) | Average time until collapsing ([2]; 0.01% inhaled for 5 minutes) | Average time until collapsing ([2]; 0.1% inhaled for 5 minutes)
1 | C[C@@H](N)[C@H]1CC[C@H](C(=O)Nc2ccnc3[nH]ccc23)CC1 [Example 3, (+)-trans-N-(1H-pyrrolo[2,3-b]pyridin-4-yl)-4-(1-aminoethyl)cyclohexanecarboxamide] | -62 mmHg | 90 nM | 2.7 min | 8.8 µg | 60 nM | 152.4 ± 12.2 s | 235.4 ± 40.2 s
2 | CC(C)(N)[C@H]1CC[C@H](C(=O)Nc2ccnc3[nH]ccc23)CC1 [Example 4, trans-N-(1H-pyrrolo[2,3-b]pyridin-4-yl)-4-(1-amino-1-methylethyl)cyclohexanecarboxamide] | -77 mmHg | 80 nM | 3.8 min | 7.0 µg | 90 nM | – | –
3 | C[C@@H](N)[C@H]1CC[C@H](C(=O)Nc2ccnc3[nH]ncc23)CC1 [Example 6, (+)-trans-N-(1H-pyrazolo[3,4-b]pyridin-4-yl)-4-(1-aminoethyl)cyclohexanecarboxamide] | -96 mmHg | 120 nM | 3.0 min | 4.3 µg | 170 nM | – | –
4 | CC(C)(N)[C@H]1CC[C@H](C(=O)Nc2ccnc3[nH]ncc23)CC1 [Example 7, trans-N-(1H-pyrazolo[3,4-b]pyridin-4-yl)-4-(1-amino-1-methylethyl)cyclohexanecarboxamido] | -53 mmHg | 190 nM | 6.7 min | 20 µg | 310 nM | – | –
